Converted amounts (≈) assume the structure as drawn.
Tests used:
[1] = Antiproliferative activity against human hTERT-HME1 cells after 72 hrs by Alamar blue assay; type: cell-based
[2] = molecular target: T1, Kinesin-like protein KIF11 (Homo sapiens, UniProt P52732)
T1 sequence (P52732 whole entry): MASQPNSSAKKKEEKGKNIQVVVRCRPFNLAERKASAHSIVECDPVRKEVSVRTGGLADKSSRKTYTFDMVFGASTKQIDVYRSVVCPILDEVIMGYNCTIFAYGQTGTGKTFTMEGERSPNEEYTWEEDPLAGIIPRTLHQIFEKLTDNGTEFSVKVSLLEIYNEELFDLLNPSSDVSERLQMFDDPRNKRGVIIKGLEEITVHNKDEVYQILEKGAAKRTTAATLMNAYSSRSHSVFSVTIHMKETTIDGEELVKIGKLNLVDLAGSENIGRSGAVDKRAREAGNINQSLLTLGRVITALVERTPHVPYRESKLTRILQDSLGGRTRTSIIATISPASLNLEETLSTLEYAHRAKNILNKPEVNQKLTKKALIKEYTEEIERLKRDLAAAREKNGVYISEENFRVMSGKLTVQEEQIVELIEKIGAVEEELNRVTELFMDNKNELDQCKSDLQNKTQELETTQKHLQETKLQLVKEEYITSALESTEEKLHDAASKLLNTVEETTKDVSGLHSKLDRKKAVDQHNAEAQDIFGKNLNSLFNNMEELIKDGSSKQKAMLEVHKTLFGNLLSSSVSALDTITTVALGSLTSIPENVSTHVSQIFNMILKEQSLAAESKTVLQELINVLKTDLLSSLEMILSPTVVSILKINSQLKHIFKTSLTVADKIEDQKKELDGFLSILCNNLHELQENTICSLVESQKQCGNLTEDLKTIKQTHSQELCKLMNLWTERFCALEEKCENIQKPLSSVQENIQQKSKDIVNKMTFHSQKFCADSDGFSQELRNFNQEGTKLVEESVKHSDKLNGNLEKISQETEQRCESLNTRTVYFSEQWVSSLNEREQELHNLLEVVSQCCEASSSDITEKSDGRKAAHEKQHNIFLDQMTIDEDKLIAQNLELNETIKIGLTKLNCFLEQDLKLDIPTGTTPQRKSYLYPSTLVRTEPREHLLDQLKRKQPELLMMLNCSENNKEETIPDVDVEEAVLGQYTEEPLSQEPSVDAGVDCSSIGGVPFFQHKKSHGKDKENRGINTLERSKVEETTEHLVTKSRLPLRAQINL

[3] = Apparent permeability of the compound by PAMPA method; type: ADME
K562 = assay: cells; conditions: Homo sapiens, K562, 72 h
Description: Antiproliferative activity against human K562 cells after 72 hrs by Alamar blue assay

NCI-H1299 = assay: Antiproliferative activity against human NCI-H1299 cells after 72 hrs by Alamar blue assay; type: functional; conditions: NCI-H1299, 72 h
BXPC-3 = assay: Antiproliferative activity against human BxPC3 cells after 72 hrs by Alamar blue assay; type: functional; conditions: BXPC-3, 72 h
HCT-116 = assay: Antiproliferative activity against human HCT116 cells after 72 hrs by Alamar blue assay; type: functional; conditions: HCT-116, 72 h
[4] = Half life at pH 1.0 assessed as compound hydrolysis; type: physicochemical; conditions: buffer
[5] = molecular target: T1, Kinesin-like protein KIF11; remark: listed apart in the source
Liver = assay: Intrinsic clearance in mouse liver microsomes assessed as per mg of protein; type: ADME, Microsome
Liver microsomes = assay: Intrinsic clearance in human liver microsomes assessed as per mg of protein; type: ADME, Microsome
[6] = Intrinsic clearance in human hepatocytes assessed as per million cells; type: ADME, cell-based, Hepatocyte
[7] = Dissociation constant, pKa of the compound; type: physicochemical
[8] = Distribution coefficient, log D of the compound at pH 7.4; type: physicochemical; conditions: octanol/water
[9] = Lipophilicity, Log P of the compound; type: physicochemical; conditions: octanol/water
[10] = Turbidimetric solubility of the compound at pH 6; type: physicochemical; conditions: buffer
[11] = Turbidimetric solubility of the compound at pH 2; type: physicochemical; conditions: buffer
[12] = Turbidimetric solubility of the compound at pH 7.4; type: physicochemical; conditions: buffer

N[C@@H](CSC(c1ccccc1)(c1ccccc1)c1ccccc1)C(=O)O [S-TRITYL-L-CYSTEINE]
GI50 at 72 h [1]: 361 nM

N[C@@H](CSC(c1ccccc1)(c1ccccc1)c1cccc(O)c1)C(=O)O
Ki [2]: 48.8 nM | Papp [3]: impermeable | GI50 (K562): 2560 nM

CC(C)c1cccc(C(SCCN)(c2ccccc2)c2ccccc2)c1
GI50 (K562): 581 nM

Cc1ccc(C(CC[C@H](N)C(=O)O)(c2ccccc2)c2ccccc2)cc1
GI50 at 72 h [1]: 49 nM | GI50 (NCI-H1299): 305 nM | GI50 (BXPC-3): 268 nM | GI50 (HCT-116): 115 nM | GI50 (K562): 149 nM

COc1ccc(C(SC[C@H](N)C(=O)O)(c2ccccc2)c2ccccc2)cc1
GI50 at 72 h [1]: 81 nM

NCCNC(c1ccccc1)(c1ccccc1)c1ccccc1
t1/2 [4]: 7 h | Ki [2]: 2660 nM

CNC(=O)c1cccc(C(SCCN)(c2ccccc2)c2ccccc2)c1
GI50 (K562): 982 nM

CC(=O)c1ccc(C(SCCN)(c2ccccc2)c2ccccc2)cc1
GI50 (K562): 705 nM

CS(=O)(=O)c1cccc(C(SCCN)(c2ccccc2)c2ccccc2)c1
GI50 (K562): 2560 nM

Cc1ccc(C(SC[C@H](N)C(=O)O)(c2ccccc2)c2ccccc2)cc1
GI50 at 72 h [1]: 57 nM | GI50 (NCI-H1299): 242 nM | GI50 (BXPC-3): 284 nM | Ki [5]: 13.6 nM | GI50 (HCT-116): 130 nM | GI50 (K562): 242 nM

N[C@@H](CNC(c1ccccc1)(c1ccccc1)c1ccccc1)C(=O)O
t1/2 [4]: <= 2.9 hr

NCCSC(c1ccccc1)(c1ccccc1)c1cccc(C(F)(F)F)c1
Ki [2]: 353 nM

CCCc1cccc(C(SCCN)(c2ccccc2)c2ccccc2)c1
solubility kinetic (physchem): 3.75 µM (≈ 1.36 µg/mL) | GI50 (K562): 1760 nM

N[C@@H](CSC(c1ccccc1)(c1ccccc1)c1cccc(Cl)c1)C(=O)O
Ki [2]: 89.9 nM | GI50 (K562): 2400 nM

CNC(=O)c1ccc(C(SCCN)(c2ccccc2)c2ccccc2)cc1
GI50 (K562): 3950 nM

Cc1cccc(C(CC[C@H](N)C(=O)O)(c2ccccc2)c2ccccc2)c1
CLH (Liver): Stable | CLH (Liver microsomes): Stable | CLH [6]: Stable | GI50 at 72 h [1]: 42 nM | GI50 (NCI-H1299): 281 nM | GI50 (BXPC-3): 180 nM | GI50 (HCT-116): 95 nM

CC(=O)NCc1ccc(C(SCCN)(c2ccccc2)c2ccccc2)cc1
GI50 (K562): 2900 nM

COc1cccc(C(SCCN)(c2ccccc2)c2ccccc2)c1
Ki [2]: 150 nM

NCCSC(c1ccccc1)(c1ccccc1)c1ccccc1
GI50 at 72 h [1]: 1610 nM | GI50 (NCI-H1299): 2300 nM | Ki [2]: 246 nM | GI50 (BXPC-3): 2460 nM | Ki [5]: 152 nM | GI50 (HCT-116): 1210 nM | GI50 (K562): 2290 nM

CN(C)C(=O)c1cccc(C(SCCN)(c2ccccc2)c2ccccc2)c1
Ki [2]: 6060 nM | GI50 (K562): 2830 nM

NCCSC(c1ccccc1)(c1ccccc1)c1cccc(Cl)c1
Ki [2]: 298 nM | GI50 (K562): 1040 nM

N#Cc1cccc(C(SCCN)(c2ccccc2)c2ccccc2)c1
Ki [2]: 451 nM

Cc1ccc(C(CCC(N)C(=O)O)(c2ccccc2)c2ccccc2)cc1 (racemic)
GI50 at 72 h [1]: 44 nM | GI50 (NCI-H1299): 204 nM | GI50 (BXPC-3): 151 nM | GI50 (HCT-116): 84 nM

NC(CCC(c1ccccc1)(c1ccccc1)c1ccccc1)C(=O)O (racemic)
GI50 at 72 h [1]: 494 nM | GI50 (NCI-H1299): 2820 nM | GI50 (BXPC-3): 1490 nM | GI50 (HCT-116): 828 nM | GI50 (K562): 865 nM

CC(=O)NCc1cccc(C(SCCN)(c2ccccc2)c2ccccc2)c1
GI50 (K562): 2130 nM

NCCCC(c1ccccc1)(c1ccccc1)c1cccc(Cl)c1
GI50 (K562): 596 nM

NCCSC(c1ccccc1)(c1ccccc1)c1ccc(C(N)=O)cc1
GI50 (K562): 4340 nM

Cc1ccc(C(CC[C@@H](N)C(=O)O)(c2ccccc2)c2ccccc2)cc1
GI50 at 72 h [1]: 27 nM | GI50 (NCI-H1299): 111 nM | GI50 (BXPC-3): 85 nM | GI50 (HCT-116): 40 nM | GI50 (K562): 82 nM

CS(=O)(=O)c1ccc(C(SCCN)(c2ccccc2)c2ccccc2)cc1
GI50 (K562): 2740 nM

Cc1ccc(C(=O)N(CCCN)[C@@H](c2nc3cc(Cl)ccc3c(=O)n2Cc2ccccc2)C(C)C)cc1 [ISPINESIB]
CLH (Liver): Stable | CLH (Liver microsomes): Stable | CLH [6]: 0.75 µL/min | GI50 at 72 h [1]: 32 nM | pKa [7]: 9.34 | logD [8]: 2.66 | logP [9]: 4.75 | GI50 (K562): 71 nM

NCCSC(c1ccccc1)(c1ccccc1)c1cccc(F)c1
Ki [2]: 377 nM

CC(=O)c1ccc(C(SC[C@H](N)C(=O)O)(c2ccccc2)c2ccccc2)cc1
Ki [2]: 272 nM | GI50 (K562): 4270 nM

N[C@@H](CCC(c1ccccc1)(c1ccccc1)c1ccccc1)C(=O)O
GI50 at 72 h [1]: 721 nM | GI50 (NCI-H1299): 4020 nM | GI50 (BXPC-3): 4860 nM | GI50 (HCT-116): 1600 nM | GI50 (K562): 2060 nM

NCCSC(c1ccccc1)(c1ccccc1)c1ccc(CO)cc1
GI50 (K562): 783 nM

CSc1cccc(C(SCCN)(c2ccccc2)c2ccccc2)c1
Ki [2]: 520 nM | GI50 (K562): 1470 nM

Cc1cccc(C(SCCN)(c2ccccc2)c2ccccc2)c1
GI50 (K562): 698 nM

NC(=O)c1cccc(C(SC[C@H](N)C(=O)O)(c2ccccc2)c2ccccc2)c1
Papp [3]: impermeable | GI50 (K562): 16700 nM

CC(=O)c1cccc(C(SC[C@H](N)C(=O)O)(c2ccccc2)c2ccccc2)c1
GI50 (K562): 964 nM

NCCOC(c1ccccc1)(c1ccccc1)c1ccccc1
t1/2 [4]: 2.5 h

N#Cc1ccc(C(SCCN)(c2ccccc2)c2ccccc2)cc1
Ki [2]: 432 nM | GI50 (K562): 2180 nM

NCCSC(c1ccccc1)(c1ccccc1)c1cccc(CN)c1
GI50 (K562): 2020 nM

NCCCC(c1ccccc1)(c1ccccc1)c1ccccc1
GI50 at 72 h [1]: 572 nM | GI50 (NCI-H1299): 964 nM | GI50 (BXPC-3): 1220 nM | GI50 (HCT-116): 213 nM

NCCSC(c1ccccc1)(c1ccccc1)c1cccc(OC(F)(F)F)c1
GI50 (K562): 1520 nM

NCCSC(c1ccccc1)(c1ccccc1)c1ccc(CN)cc1
GI50 (K562): 2590 nM

CC(=O)c1cccc(C(SCCN)(c2ccccc2)c2ccccc2)c1
GI50 (K562): 706 nM

N[C@H](CCC(c1ccccc1)(c1ccccc1)c1ccccc1)C(=O)O
GI50 at 72 h [1]: 321 nM | GI50 (NCI-H1299): 1320 nM | GI50 (BXPC-3): 1120 nM | GI50 (HCT-116): 472 nM | GI50 (K562): 776 nM

Cc1ccc(C(CCCN)(c2ccccc2)c2ccccc2)cc1
GI50 at 72 h [1]: 601 nM | GI50 (NCI-H1299): 376 nM | GI50 (BXPC-3): 1600 nM | GI50 (HCT-116): 154 nM

Cc1cccc(C(CC[C@@H](N)C(=O)O)(c2ccccc2)c2ccccc2)c1
CLH (Liver): Stable | CLH (Liver microsomes): Stable | CLH [6]: Stable | GI50 at 72 h [1]: 26 nM | GI50 (NCI-H1299): 132 nM | GI50 (BXPC-3): 75 nM | GI50 (HCT-116): 51 nM

NCCSC(c1ccccc1)(c1ccccc1)c1cccc(C(=O)O)c1
GI50 (K562): 2140 nM

NCCCC(c1ccccc1)(c1ccccc1)c1ccc(Cl)cc1
GI50 at 72 h [1]: 308 nM | GI50 (NCI-H1299): 828 nM | GI50 (BXPC-3): 2310 nM | GI50 (HCT-116): 230 nM | GI50 (K562): 337 nM

N[C@@H](CSC(c1ccccc1)(c1ccccc1)c1ccc2ccccc2c1)C(=O)O
GI50 at 72 h [1]: 119 nM | GI50 (NCI-H1299): 227 nM | GI50 (BXPC-3): 245 nM | Ki [5]: 4.2 nM | GI50 (HCT-116): 153 nM | GI50 (K562): 247 nM

CN(C)C(=O)c1ccc(C(SCCN)(c2ccccc2)c2ccccc2)cc1
GI50 (K562): 2910 nM

Cc1cccc(C(CCCN)(c2ccccc2)c2ccccc2)c1
solubility kinetic [10]: > 100 µM | solubility kinetic [11]: > 100 µM | CLH (Liver microsomes): Stable | CLH [6]: 3.93 µL/min | GI50 at 72 h [1]: 150 nM | pKa [7]: 10.1 | logD [8]: 2.33 | logP [9]: 4.69 | solubility kinetic [12]: > 100 µM

Reference: ChEMBL document CHEMBL2021885, “Triphenylbutanamines: kinesin spindle protein inhibitors with in vivo antitumor activity” (J Med Chem, 2012)
